melting point: 164 to 166 °C
Structure (SMILES): Cc1cnn2c(-c3cccc(-c4ccccc4C#N)c3)cnc2c1

— patent US7226922B2 (dated 2007)
